Measured values: patent publication US9776972B2, “Pyrazole derivatives as arginine methyltransferase inhibitors and uses thereof” (priority 2013, dated 2017)
Structures can show the parent of a compound that is named as a salt. Where two headings read alike, the source gives them in different places.

Columns and labels:
[1] = molecular target: T1, human PRMT1 (Homo sapiens, UniProt Q99873); experiment: PRMT1 Biochemical Assay (3H-SAM Flashplate, peptide substrate)
T1 construct: GST-tagged PRMT1; made in house; host or cells: High Five insect cells (baculovirus)
Excerpt: S-adenosylmethionine (SAM), S-adenosylhomocysteine (SAH), bicine, Tween20, dimethylsulfoxide (DMSO), bovine skin gelatin (BSG), and Tris(2-carboxyethyl)phosphine hydrochloride solution (TCEP) were purchased from Sigma-Aldrich at the highest level of purity possible. ^3H-SAM was purchase from American Radiolabeled Chemicals with a specific activity of 80 Ci/mmol. 384-well streptavidin Flashplates were purchased from PerkinElmer.
Recombinant baculovirus were generated according to Bac-to-Bac kit instructions (Life Technologies). […] Infections were carried out at 27° C. for 48 hours, harvested by centrifugation, and stored at −80° C. for purification.
GST-tagged PRMT1 was eluted with 50 mM Tris, 2 mM glutathione, pH 7.8, dialysed in buffer A and concentrated to 1 mg/mL.
General Procedure for PRMT1 Enzyme Assays on Peptide Substrates.
The assays were all performed in a buffer consisting of 20 mM Bicine (pH=7.6), 1 mM TCEP, 0.005% BSG, and 0.002% Tween 20, prepared on the day of use. […] DMSO (1 ul) was added to Columns 11, 12, 23, 24, rows A-H for the maximum signal control and 1 ul of SAH, a known product and inhibitor of PRMT1, was added to columns 11, 12, 23, 24, rows I-P for the minimum signal control. A cocktail (40 ul) containing the PRMT1 enzyme was added by Multidrop Combi (Thermo-Fisher). The compounds were allowed to incubate with PRMT1 for 30 min at room temperature, then a cocktail (10 ul) containing SAM and peptide was added to initiate the reaction (final volume=51 ul). […] The assays were stopped by the addition of non-radiolabeled SAM (10 ul) to a final concentration of 300 uM, which dilutes the ^3H-SAM to a level where its incorporation into the peptide substrate is no longer detectable. 50 ul of the reaction in the 384-well polypropylene plate was then transferred to a 384-well Flashplate and the biotinylated peptides were allowed to bind to the streptavidin surface for at least 1 hour before being washed once with 0.1% Tween20 in a Biotek ELx405 plate washer. The plates were then read in a PerkinElmer TopCount plate reader to measure the quantity of ^3H-labeled peptide bound to the Flashplate surface, measured as disintegrations per minute (dpm) or alternatively, referred to as counts per minute (cpm).
Where dpm=disintegrations per minute, cmpd=signal in assay well, and min and max are the respective minimum and maximum signal controls.
Where top and bottom are the normally allowed to float, but may be fixed at 100 or 0 respectively in a 3-parameter fit. The Hill Coefficient normally allowed to float but may also be fixed at 1 in a 3-parameter fit. Y is the % inhibition and X is the compound concentration.

[2] = system: mono-methyl arginine in RKO cells; experiment: RKO Methylation Assay, In Cell Western (ICW) for mono-methyl arginine and DNA content; format: cell-based; settings: Homo sapiens, RKO, 72 h
Excerpt: RKO adherent cells were purchased from ATCC (American Type Culture Collection), Manassas, Va., USA. DMEM/Glutamax medium, penicillin-streptomycin, heat inactivated fetal bovine serum, 0.05% trypsin and D-PBS were purchased from Life Technologies, Grand Island, N.Y., USA. Odyssey blocking buffer, 800CW goat anti-rabbit IgG (H+L) antibody, and Licor Odyssey infrared scanner were purchased from Licor Biosciences, Lincoln, Nebr., USA. Mono-methyl arginine antibody was purchased from Cell Signaling Technology, Danvers, Mass., USA. Methanol was purchased from VWR, Franklin, Mass., USA. 10% Tween 20 was purchased from KPL, Inc., Gaithersburg, Md., USA. DRAQ5 was purchased from Biostatus Limited, Leicestershire, UK.
RKO adherent cells were maintained in growth medium (DMEM/Glutamax medium supplemented with 10% v/v heat inactivated fetal bovine serum and 100 units/mL penicillin-streptomycin) and cultured at 37° C. under 5% CO2.
Cell Treatment, in Cell Western (ICW) for Detection of Mono-Methyl Arginine and DNA Content.
RKO cells were seeded in assay medium at a concentration of 20,000 cells per mL to a poly-D-lysine coated 384 well culture plate (BD Biosciences 356697) with 50 μL per well. Compound (100 nL) from a 96-well source plate was added directly to 384 well cell plate. Plates were incubated at 37° C., 5% CO2 for 72 hours. After three days of incubation, plates were brought to room temperature outside of the incubator for ten minutes and blotted on paper towels to remove cell media. 50 μL of ice cold 100% methanol was added directly to each well and incubated for 30 min at room temperature. After 30 min, plates were transferred to a Biotek EL406 plate washer and washed 2 times with 100 μL per well of wash buffer (1×PBS). Next 60 μL per well of Odyssey blocking buffer (Odyssey Buffer with 0.1% Tween 20 (v/v)) were added to each plate and incubated 1 hour at room temperature. Blocking buffer was removed and 20 μL per well of primary antibody was added (mono-methyl arginine diluted 1:200 in Odyssey buffer with 0.1% Tween 20 (v/v)) and plates were incubated overnight (16 hours) at 4° C. Plates were washed 5 times with 100 μL per well of wash buffer. Next 20 μL per well of secondary antibody was added (1:200 800CW goat anti-rabbit IgG (H+L) antibody, 1:1000 DRAQ5 (Biostatus limited) in Odyssey buffer with 0.1% Tween 20 (v/v)) and incubated for 1 hour at room temperature. The plates were washed 5 times with 100 μL per well wash buffer then 2 times with 100 μL per well of water. Plates were allowed to dry at room temperature then imaged on the Licor Odyssey machine which measures integrated intensity at 700 nm and 800 nm wavelengths. Both 700 and 800 channels were scanned.
First, the ratio for each well was determined by:
Each plate included fourteen control wells of DMSO only treatment (minimum activation) as well as fourteen control wells for maximum activation treated with 20 μM of a reference compound. The average of the ratio values for each control type was calculated and used to determine the percent activation for each test well in the plate. Reference compound was serially diluted three-fold in DMSO for a total of nine test concentrations, beginning at 20 μM. Percent activation was determined and EC30 curves were generated using triplicate wells per concentration of compound.

[3] = single experiment or average of multiple experiments
[4] = RKO cells, 72 hours, mono-methyl arginine, percent activation, single experiment or average of multiple experiments, read-out: EC30 (In Cell Western data, Numerical)
[5] = RKO cells, 72 hours, mono-methyl arginine, percent activation, class symbols, read-out: EC30 (In Cell Western data)
[6] = read-out: EC30 (In Cell Western data, Numerical, μM)

T1 sequence (Q99873 with tags, fused parts or gaps): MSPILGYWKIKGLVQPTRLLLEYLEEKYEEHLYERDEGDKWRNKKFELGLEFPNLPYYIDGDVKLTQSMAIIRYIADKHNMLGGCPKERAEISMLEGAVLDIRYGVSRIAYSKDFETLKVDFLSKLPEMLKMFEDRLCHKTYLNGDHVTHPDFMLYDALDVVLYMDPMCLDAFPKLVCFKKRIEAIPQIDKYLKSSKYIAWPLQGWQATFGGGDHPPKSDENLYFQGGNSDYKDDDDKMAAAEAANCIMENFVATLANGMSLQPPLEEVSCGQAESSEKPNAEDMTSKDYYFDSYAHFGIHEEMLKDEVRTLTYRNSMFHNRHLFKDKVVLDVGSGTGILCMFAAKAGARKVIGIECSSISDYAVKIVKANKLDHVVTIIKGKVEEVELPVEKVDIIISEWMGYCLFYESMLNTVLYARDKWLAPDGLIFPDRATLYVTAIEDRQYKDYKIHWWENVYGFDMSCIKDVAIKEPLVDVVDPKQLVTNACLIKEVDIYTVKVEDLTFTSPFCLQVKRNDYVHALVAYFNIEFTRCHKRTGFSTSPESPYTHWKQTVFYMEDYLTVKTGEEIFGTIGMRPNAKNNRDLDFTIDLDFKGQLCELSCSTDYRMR

Compound | IC50 [1, 3] [nM] | IC50 [1] [nM] | EC30 [2, 4] [µM] | EC30 [2, 5] [µM] | EC30 [2, 6] [µM] | EC30 ([2]; read-out: EC30 (In Cell Western data)) [µM]
Cc1ccc(-c2n[nH]cc2CN(C)CCN)c(F)c1 [Compound 108] | 31.3 | – | – | – | – | –
CN(CCN)Cc1c[nH]nc1-c1ccc(OCC(F)(F)F)cc1 [Compound 96] | 4.41 | – | 0.92 | – | – | –
CN(CCN)Cc1n[nH]cc1-c1ccc(OC(F)(F)F)cc1 [Compound 105] | 8.85 | – | 2.28 | – | – | –
CN(CCN)Cc1n[nH]cc1-c1ccc(OC(F)F)cc1 [Compound 138] | 21.2 | – | 2.28 | – | – | –
Cc1ccc(-c2n[nH]cc2CN(C)CCN)cc1Cl [Compound 126] | 6.81 | – | 1.23 | – | – | –
COc1ccccc1-c1n[nH]cc1CN(C)CCN [Compound 109] | 244 | – | – | – | – | –
CN(CCN)Cc1c[nH]nc1-c1cc(F)cc(F)c1 [Compound 111] | 18.9 | – | – | – | – | –
CC(O)c1ccc(-c2n[nH]cc2CN(C)CCN)cc1 (centres unmarked) [Compound 115] | 46 | – | – | – | – | –
COCCn1ncc(CN(C)CCN)c1-c1ccc(F)cc1 [Compound 6] | 3460 | – | > 20 | – | – | –
COc1cccc(-c2n[nH]cc2CN(C)CCN)c1 [Compound 130] | 135 | – | 3.92 | – | – | –
CN(CCN)Cc1c[nH]nc1-c1ccc(C(F)(F)F)c(F)c1 [Compound 141] | 8.16 | – | 0.583 | – | – | –
CC(C)Oc1ccc(-c2n[nH]cc2CN(C)CCN)cc1F [Compound 97] | 2.6 | – | – | – | 0.184 | –
Cc1cccc(-c2n[nH]cc2CN(C)CCN)c1 [Compound 131] | 29.6 | – | 2.56 | – | – | –
CN(CCN)Cc1c[nH]nc1-c1ccc(C2CCOCC2)cc1 [Compound 98] | 5.84 | – | 2.85 | – | – | –
CN(CCN)Cc1c[nH]nc1-c1ccccc1C#N [Compound 140] | 399 | – | > 20 | – | – | –
CN(CCN)Cc1n[nH]cc1-c1ccc(OC2CC2)cc1 [Compound 119] | 16.2 | – | 4.54 | – | – | –
CC(=O)c1cccc(-c2n[nH]cc2CN(C)CCN)c1 [Compound 112] | 81 | – | – | – | – | –
CCn1cc(CN(C)CCNC)c(-c2ccc(F)cc2)n1 [Compound 8] | 1180 | – | > 20 | – | – | –
COc1ccc(-c2n[nH]cc2CN(C)CCN)cc1Cl [Compound 125] | 8.38 | – | – | – | 1.57 | –
CN(CCN)Cc1c[nH]nc1-c1ccc(C2CC2)cc1 [Compound 116] | 4.84 | – | 1.41 | – | – | –
CN(CCN)Cc1c[nH]nc1-c1ccc(C(F)(F)F)cc1Cl [Compound 135] | 48.1 | – | 8.05 | – | – | –
CNCCN(C)Cc1cnn(C)c1-c1ccc(OC(C)C)cc1 [Compound 244, hydrochloride] | 8.68 | < 100 | – | – | 0.142 | < 3
CN(CCN)Cc1n[nH]cc1-c1ccc(Cl)cc1 [Compound 102] | 11.3 | – | 2.32 | – | – | –
Cc1c(F)cccc1-c1n[nH]cc1CN(C)CCN [Compound 129] | 121 | – | 7.38 | – | – | –
COc1ccc(-c2n[nH]cc2CN(C)CCN)cc1F [Compound 134] | 10.8 | – | 1.09 | – | – | –
Cc1cc(C#N)ccc1-c1n[nH]cc1CN(C)CCN [Compound 110] | 21.6 | – | – | – | – | –
COc1ccc(-c2n[nH]cc2CN(C)CCN)c(F)c1 [Compound 107] | 44.1 | – | – | – | – | –

Further lines, with some results ahead:

IC50 [1, 3] [nM] | IC50 [1] [nM] | Compound | EC30 [2, 4] [µM] | EC30 [2, 5] [µM] | EC30 [2, 6] [µM] | EC30 ([2]; read-out: EC30 (In Cell Western data)) [µM]
7.07 | < 100 | CC[C@@H](C)Oc1ccc(-c2n[nH]cc2CN(C)CCNC)cc1 [Compound 308] | 0.065 | < 3 | – | –
8.28 | < 100 | CCC(CC)Oc1ccc(-c2n[nH]cc2CN(C)CCNC)cc1 [Compound 290] | 0.021 | < 3 | – | –
7.87 | < 100 | CNCCN(C)Cc1c[nH]nc1-c1ccc(OCC2CC2)c(F)c1 [Compound 298] | 0.104 | < 3 | – | –
13.3 | < 100 | CNCCN(C)Cc1c[nH]nc1-c1ccc(OCC2CCOCC2)cc1 [Compound 284] | 0.856 | < 3 | – | –
28.8 | < 100 | CNCCN(C)Cc1c[nH]nc1-c1ccc(NCC(C)C)cc1 [Compound 296] | 0.478 | < 3 | – | –
34.9 | < 100 | CNCCN(C)Cc1c[nH]nc1-c1ccc(C(C)(C)COC)cc1 [Compound 313] | 0.894 | < 3 | – | –
6.43 | < 100 | CNCCN(C)Cc1c[nH]nc1-c1ccc(OC2CC2)c(F)c1 [Compound 301] | 0.128 | < 3 | – | –
33.4 | < 100 | CNCCN(C)Cc1c[nH]nc1-c1ccc(Oc2ncccn2)cc1 [Compound 302] | 0.976 | < 3 | – | –
29.7 | – | COc1cc(-c2n[nH]cc2CN(C)CCN)ccc1F [Compound 142] | 2.1 | – | – | –
21.6 | < 100 | CNCCN(C)Cc1c[nH]nc1-c1ccc(OC(COC)C(C)C)cc1 (centres unmarked) [Compound 311] | 0.227 | < 3 | – | –
27.9 | < 100 | CNCCN(C)Cc1c[nH]nc1-c1ccc(N(C)C(C)C)cc1 [Compound 300] | 0.611 | < 3 | – | –
5.89 | < 100 | CNCCN(C)Cc1c[nH]nc1-c1ccc(OCC2CCC2)cc1 [Compound 307] | 0.109 | < 3 | – | –
3.37 | < 100 | CNCCN(C)Cc1c[nH]nc1-c1ccc(Oc2ccccc2)c(F)c1 [Compound 297] | 0.08 | < 3 | – | –
8.97 | < 100 | CNCCN(C)Cc1c[nH]nc1-c1ccc(OCC2CC2)cc1 [Compound 288] | 0.076 | < 3 | – | –
18.2 | < 100 | CNCCN(C)Cc1c[nH]nc1-c1ccc(OC(COC)CC(C)C)cc1 (centres unmarked) [Compound 314] | 0.51 | < 3 | – | –
